PMC4052307, “Identification of Plakortide E from the Caribbean Sponge Plakortis halichondroides as a Trypanocidal Protease Inhibitor using Bioactivity-Guided Fractionation” (Marine Drugs, 2014)
“And” between values parts separate entries of the source, which are not always exact repeats. Equal values may be shown once. Read-outs that look alike come from different tables or passages of the source.

Key:
Plasmodia = conditions: cited from earlier work
rhodesain [1] = biological target: T1, rhodesain (Trypanosoma brucei rhodesiense, UniProt Q95PM0); assay: rhodesain dilution assay (reversibility); assay type: biochemical; conditions: preincubated 1 h with 10 fold IC50, then diluted 100 fold
Protocol: In order to study the inhibition mechanism of plakortide E, enzyme assays with various inhibitor and substrate concentrations were performed with cathepsin B to determine whether the inhibition is competitive with respect to the substrate. The IC50 values for cathepsin B were determined at three different substrate concentrations (50, 100, 200 μM). […] Therefore, we determined the time-dependency of inhibition by measuring IC50 values in correlation to incubation time of enzyme with the inhibitor added, prior to substrate addition. […] To address whether the inhibition is reversible or irreversible, further kinetic studies were performed as described by Copeland [19]. Dilution assays were performed and compared with K11777 [20], an irreversible vinylsulfone-based inhibitor of rhodesain. The enzyme rhodesain (100 fold concentration as used in the normal enzyme assays) was preincubated with the 10 fold IC50 concentration of the compound for one hour, which allows the formation of enzyme-inhibitor complexes and leads to total block of enzyme activity. […] In case of irreversible inhibition, dissociation of the complex cannot occur and no enzyme activity will be detected. […] This indicates a reversible inhibition by plakortide E. In summary, plakortide E was determined to be a non-competitive, reversible, inhibitor of cysteine proteases, in case of rhodesain slow-binding was observed.

Candida albicans = assay: assay on C. albicans; assay type: cell-based
SARS PLpro = assay type: biochemical, SARS coronavirus; conditions: at 100 μg/mL (285.71 μM)
[2] = test system: trypomastigote forms of Trypanosoma brucei; assay: parasite growth assay against T. brucei; assay type: cell-based; conditions: read-out: trypanocidal activity IC50
[3] = test system: Leishmania major promastigotes; assay: assay on L. major promastigotes; assay type: cell-based
[4] = test system: sarcoplasmic reticulum (SR) Ca2+ ATPase; parameters: method as in doi:10.1016/0040-4020(95)00856-X; conditions: cited from earlier work
cathepsin L = cathepsin L (Homo sapiens, UniProt P07711); assay: cathepsin L enzyme assay; assay type: biochemical
rhodesain [5] = biological target: T1, rhodesain; assay: rhodesain enzyme assay; assay type: biochemical
cathepsin B = cathepsin B (Homo sapiens, UniProt P07858); assay: cathepsin B enzyme assay; assay type: biochemical
J774.1 macrophages = conditions: at 100 μM

Sequence of cathepsin L (P07711 114-333): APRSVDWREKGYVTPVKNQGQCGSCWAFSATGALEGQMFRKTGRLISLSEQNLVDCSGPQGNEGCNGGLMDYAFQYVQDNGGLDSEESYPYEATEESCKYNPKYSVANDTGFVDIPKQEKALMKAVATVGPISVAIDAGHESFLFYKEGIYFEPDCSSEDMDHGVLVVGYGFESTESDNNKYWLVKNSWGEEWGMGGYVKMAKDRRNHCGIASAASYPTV
T1 sequence (Q95PM0 entry or part of it): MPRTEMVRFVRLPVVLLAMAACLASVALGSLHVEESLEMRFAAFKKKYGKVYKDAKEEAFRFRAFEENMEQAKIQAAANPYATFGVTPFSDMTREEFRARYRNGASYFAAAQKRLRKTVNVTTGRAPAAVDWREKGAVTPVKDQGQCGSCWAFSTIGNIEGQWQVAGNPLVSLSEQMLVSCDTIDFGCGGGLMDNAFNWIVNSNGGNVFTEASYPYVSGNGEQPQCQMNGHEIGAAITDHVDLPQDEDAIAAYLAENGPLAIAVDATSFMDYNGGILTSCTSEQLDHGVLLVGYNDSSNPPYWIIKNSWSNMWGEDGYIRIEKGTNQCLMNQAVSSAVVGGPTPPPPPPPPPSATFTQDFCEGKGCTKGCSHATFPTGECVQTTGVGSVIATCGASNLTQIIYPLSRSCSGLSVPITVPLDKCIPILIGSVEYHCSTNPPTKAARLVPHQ

## CC/C=C/C(CC)C[C@@]1(C)C[C@@H](CC)[C@H](CC(=O)OC)OO1 (stereo partly shown) [3-epiplakortin]
Plasmodia
  activity against Plasmodia: active

## CN1CCN(C(=O)N[C@@H](Cc2ccccc2)C(=O)N[C@H](/C=C/S(=O)(=O)c2ccccc2)CCc2ccccc2)CC1 [K11777, reference compound]
Rhodesain [1]
  reactivation of the enzyme (enzyme activity after dilution): no enzyme activity was detected

## CC/C=C/[C@H](CC)C/C(C)=C/[C@@]1(CC)C[C@](/C=C/C(=O)O)(CC)OO1 [plakortide E]
Candida albicans
  activity against Candida: No activity
SARS PLpro
  inhibition of SARS PLpro: Inhibition
[2]; after 48 h
  IC50: 5 µM
[2]; after 72 h
  IC50: 5 µM
[3]
  activity against Leishmania: did not show activity
[4]
  SR Ca2+ ATPase activity: stimulate
Rhodesain [1]
  reactivation of the enzyme (enzyme activity after dilution): about 50%
Cathepsin L; [S] = 6.25 μM
  IC50: 106 µM and 105 µM
Cathepsin L; at 100 μg/mL (285.71 μM)
  inhibition of cathepsin L: Inhibition
Plasmodia
  activity against Plasmodia: inactive
Rhodesain [5]; 5 min incubation of enzyme with inhibitor prior to substrate addition, read-out: IC50 rhodesain, time-dependency (converted)
  IC50: 257 µM
Rhodesain [5]; 30 min incubation of enzyme with inhibitor prior to substrate addition, read-out: IC50 rhodesain, time-dependency (converted)
  IC50: 205 µM
Rhodesain [5]; 60 min incubation of enzyme with inhibitor prior to substrate addition, read-out: IC50 rhodesain, time-dependency (converted)
  IC50: 77 µM
Rhodesain [5]; [S] = 30.0 μM, read-out: IC50 rhodesain (converted)
  IC50: 124 µM and 126 µM
Rhodesain [5]; at 100 μg/mL (285.71 μM)
  inhibition of rhodesain: Inhibition
Rhodesain [5]; enzyme kinetic studies
  inhibition mechanism, rhodesain: non-competitive, slowly-binding, reversible inhibitor
Cathepsin B; IC50 at three substrate concentrations
  inhibition mechanism, cathepsin B: non-competitive inhibition
Cathepsin B; at 100 μg/mL (285.71 μM)
  inhibition of cathepsin B: Inhibition
Cathepsin B; substrate concentration 50 μM
  IC50: 82.7 µM and 82 µM
Cathepsin B; substrate concentration 100 μM
  IC50: 74.2 µM and 73 µM
Cathepsin B; substrate concentration 200 μM
  IC50: 103 µM
J774.1 macrophages
  cytotoxic effects against macrophages: no cytotoxic effects

## CC/C=C/[C@H](CC)C/C=C/[C@@]1(CC)C[C@H](CC)[C@H](CC(=O)O)OO1 [plakortide M]
Plasmodia
  activity against Plasmodia: active

## CC/C=C/[C@H](CC)C[C@@]1(C)C[C@@H](CC)[C@@H](CC(=O)OC)OO1 [plakortin]
Plasmodia
  activity against Plasmodia: active

## dihydroplakortin
Plasmodia
  activity against Plasmodia: active

## plakortide Q
Plasmodia
  activity against Plasmodia: active
